Results on 4 compounds are retold here after US4725583A, “Functionalized peptidylaminoalcohols” (Abbott Laboratories, priority 1986, dated 1988).

Each structure is given as a SMILES string.

For this assay, the target named is T1, human renal renin (Homo sapiens, UniProt P00797).
T1 construct: human renal renin, free from acid proteolytic activity; from tissue
T1 sequence (P00797 67-406): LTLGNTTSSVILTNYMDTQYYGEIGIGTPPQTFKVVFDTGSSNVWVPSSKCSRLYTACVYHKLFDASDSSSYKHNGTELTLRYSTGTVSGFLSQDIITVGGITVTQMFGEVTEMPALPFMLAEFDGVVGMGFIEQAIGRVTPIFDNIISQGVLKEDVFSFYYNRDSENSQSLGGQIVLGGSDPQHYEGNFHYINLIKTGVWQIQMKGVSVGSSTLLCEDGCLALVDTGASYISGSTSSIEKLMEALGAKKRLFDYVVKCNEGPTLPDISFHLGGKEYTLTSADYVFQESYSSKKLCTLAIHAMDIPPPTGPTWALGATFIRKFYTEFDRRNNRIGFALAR
The assay is described as follows: In vitro inhibition of human renal renin (angiotensin I formation measured by radioimmunoassay). The format is biochemical. As to conditions: human renal renin with human renin substrate (angiotensinogen), 37° C., pH 6.0.
`CC(C)C[C@H](NC(=O)[C@H](C)NC(=O)[C@H](Cc1ccccc1)NC(=O)OC(C)(C)C)C(O)C=O` (stereo partly drawn) [Example 3, Boc-Phe-Ala Amide of (3S)-Amino-2-hydroxy-5-methylhexanal]: inhibition was half-maximal at 10 nM (IC50).

Turning to `C[C@H](NC(=O)[C@H](Cc1ccccc1)NC(=O)OC(C)(C)C)C(=O)N[C@@H](CC1CCCCC1)[C@@H](O)CCl` [Example 14, Boc-Phe-Ala Amide of (2R,3S)-3-Amino-1-chloro-4-cyclohexyl-2-hydroxybutane], inhibition was half-maximal at 400 nM (IC50).

In the case of `C[C@H](NC(=O)[C@H](Cc1ccccc1)NC(=O)OC(C)(C)C)C(=O)N[C@@H](CC1CCCCC1)[C@@H](O)CBr` [Example 16, Boc-Phe-Ala Amide of (2R,3S)-3-Amino-1-bromo-4-cyclohexyl-2-hydroxybutane], the IC50 (as a rule, the point on the concentration scale where inhibition reaches its midpoint) was 700 nM.

In turn, `CC(C)CC(=O)C(O)[C@H](CC1CCCCC1)NC(=O)[C@H](Cc1cnc[nH]1)NC(=O)[C@H](Cc1ccccc1)NC(=O)OC(C)(C)C` (stereo partly drawn) [Example 19, Boc-Phe-His Amide of (2S)-Amino-1-cyclohexyl-3-hydroxy-6-methylheptan-4-one] gave an IC50 of 10 nM.
